The values that follow come from article PMC12406196, “Anticoronavirus Activity of Uridine Glycoconjugates Containing a 1,2,3-Triazole Moiety” (Journal of Medicinal Chemistry, 2025).

Data set [1] deals with human coronavirus strain NL63 (HCoV-NL63). Briefly: HCoV-NL63 titer in medium of infected LLC-Mk2 cells, foci-forming assay. Particulars: for antiviral efficacy against HCoV-NL63 compared with compound 24: dose-response 0–25 μM, LLC-Mk2 cells. In kind it is cell-based. The method, then: LR7 or LLC-Mk2 cells were infected at a MOI of 0.01 with MHV and HCoV-NL63, respectively, and treated with selected compounds at a concentration ranging from 0 to 50 μM. Culture supernatants were collected 1 day (MHV) or 4 days (HCoV-NL63) after infection. […]
(§1) The half-maximum inhibitory concentration value (IC50) indicating the concentration of compound needed to reduce virus titer by 50% in comparison to the control, was evaluated by GraphPad software (version 5.01, GraphPad Software, San Diego, CA).

In a further data set the test system is SARS-CoV-2. Briefly: SARS-CoV-2 infectivity in supernatants of infected Vero cells, plaque assay. Format: cell-based. The settings on record: read-out: IC50 (SARS-CoV-2). As to the method: Vero cells were seeded in appropriate plates and allowed to reach an approximately 90% confluence. For infection, 200 μL of viral suspension containing 10^5 pfu (SARS-CoV-2 strain SARS-CoV-2/human/Czech Republic/951/2020) was added to each well and incubated for 2 h at 37 °C to allow virus adsorption. After the incubation, the viral medium was removed, and the wells were washed gently with phosphate-buffered saline (PBS). Test compounds were prepared in serial dilutions to final concentrations of 50, 25, 12.5, 6.25, 3.125, and 0 μM in the medium (DMEM containing 2% FBS). The compounds were added in quadruplicate to the infected cells. The plates were then incubated for 48 h at 37 °C. Following the 48 h treatment period, the supernatants were removed, and plaque assays in Vero E6 cells were performed to assess viral titers. Cells were fixed and stained 4 days after infection to visualize plaques, as described previously.
as §1

For data set [2], the system named is SC-VLP entry into HEK-hACE2 cells. Briefly: SARS-CoV-2 VLP (SC-VLP) internalization assay in HEK-hACE2 cells, luciferase. Particulars: 12.5 μM during SC-VLP production. Format: cell-based.
In data set [3] the test system is human coronavirus strain NL63 (HCoV-NL63). Briefly: HCoV-NL63 N protein expression in LLC-Mk2 cells, Western blot and densitometry. Particulars: 50 μM, MOI 0.01, 4 days p.i., Western blot/densitometry. Format: cell-based. The method, then:
LLC-Mk2 monolayers grown in 24-well plates were infected with HCoV-NL63 at an MOI value of 0.01 for 2 h. Unbound virus was removed, and cells were cultured in medium supplemented with different concentrations of compounds. Four days postinfection, cells were collected and lysed in CellLyticM Cell Lysis Reagent (Sigma). Following the protein separation by SDS-PAGE and transfer to PVDF membranes, proteins were immunoblotted using specific mouse anti-N NL63 Abs (Eurofins, Spain) or rabbit anti-β-catenin Abs (Santa Cruz), followed by antimouse or antirabbit secondary antibodies conjugated with HRP. Proteins were visualized and analyzed by chemiluminescence using the UVITEC Cambridge Alliance MINI HD detection system. The densitometric analysis of cells treated with 50 μM dose of a panel of glycoconjugates was performed based on three biological replicates of N and β-catenin immunoblots. The N protein levels were expressed as a percentage relative to DMSO-treated infected cells, while β-catenin levels were expressed as a percentage relative to noninfected control cells. The data were presented as the ratio of N/β-catenin for each sample, normalized accordingly.
On the technique in general: In western blotting, separated proteins are transferred to a membrane and probed.

The subject of data set [4] is murine hepatitis virus strain A59 (MHV). Put plainly: MHV titer in medium of infected LR7 cells, plaque assay. The settings on record: for IC50: Murine coronavirus. In kind it is cell-based. The method, then: LR7 or LLC-Mk2 cells were infected at a MOI of 0.01 with MHV and HCoV-NL63, respectively, and treated with selected compounds at a concentration ranging from 0 to 50 μM. Culture supernatants were collected 1 day (MHV) or 4 days (HCoV-NL63) after infection. Virus titer was determined by plaque assay.
as §1

The nature of data set [5]: MTS-based cell viability assay in LR7 cells. More on the design: species or system mouse. The settings on record: mouse, LR7 cells, 48 h, 0–100 μM, read-out: CC50 (MHV block). As to the method:
(§2) LR7, LLC-Mk2 or Vero cells were seeded in 96-well plates and cultured overnight. Next, the medium was changed to a new one supplemented with different concentrations (in triplicate) of analyzed compounds. Following the 2 days (LR7 and Vero) or 4 days (LLC-Mk-2) of incubation, CellTiter 96 AQueous nonradioactive cell proliferation assay (Promega) was performed according to the manufacturer’s instruction. The half-maximal cytotoxic concentration (CC50) was calculated as the concentration of a compound needed to reduce cell viability by 50% using GraphPad Prism software (version 5.01, GraphPad Software, San Diego, CA).

Another data set concerns LR7 cells. Put plainly: MTS-based cell viability assay in LR7 cells. Particulars: 50 μM, uninfected LR7 cells. More on the design: species or system mouse. As to the method: as §2
Data set [6] has as its system murine hepatitis virus strain A59 (MHV). Briefly: Reduction of MHV cytopathic effect (CPE) in LR7 cells, MTS/PMS readout. The settings on record: for protection against MHV-induced CPE: 50 μM, MOI 0.01, 24 h; for concentration above which MHV-induced CPE was significantly reduced: MOI 0.01, 24 h p.i. Format: cell-based. As to the method: LR7 cells were seeded in a 96-well plate and cultured overnight. Next, the cells were infected with MHV at an MOI value of 0.01 in medium without FBS. Following 1 h of incubation, the medium containing the virus was collected and cells were covered with a medium supplemented with different concentrations (in triplicate) of the analyzed compounds or DMSO. 24 h p.i. cells viability was evaluated by CellTiter 96 AQueous nonradioactive cell proliferation assay (Promega) according to the manufacturer’s instruction.
(Protection from cytopathic effect is a common read-out in antiviral testing.)

A short description of data set [7]: MTS-based cell viability assay in Vero cells. The settings on record: African green monkey, 96 h per table footnote, read-out: CC50 (SARS-CoV-2 block). As to the method:
as §2

Data set [8] can be described thus: MTS-based cell viability assay in LLC-Mk2 cells. The settings on record: Macaca mulatta, read-out: CC50 (HCoV-NL63 block). The method, then:
as §2

In a further data set the test system is HCoV-NL63 RNA synthesis. Put plainly: HCoV-NL63 RNA level in infected LLC-Mk2 cells, RT-PCR. Format: cell-based, human coronavirus NL63. Particulars: MOI 0.01, 96 h p.i. The method, then:
LR7 or LLC-Mk2 were cultured in 12-well plate overnight. Next, LR7 cells were infected with MHV at an MOI value of 1 for 1 h or LLC-Mk2 cells were infected with HCoV-NL63 at an MOI value of 0.01 for 2 h. Following removal of unbound virus, cells were cultured with medium supplemented with different concentrations of selected compounds. 8 h p.i. (MHV) or 96 h p.i. (HCoV-NL63) cells were collected and total RNA was isolated by CoV RNA kit (A&A Biotechnology, Poland) according to the manufacturer’s instruction. To evaluate levels of viral RNA in infected cells Qiagen One-Step RT-PCR reaction was performed. Following reverse transcription, the PCR reaction was carried out using primers: F: […], R: […] for amplification of a fragment of HCoV-NL63 genome (position: 26418–26960 bp NC_005831.2) and F: […] and R: […] for amplification of a fragment of MHV genome (position: 30341–30902 bp FJ647225.1). For internal control fragment of β-actin mRNA was reverse transcribed and amplified using primers For: […] and Rev: […].

On the set-up of data set [9]: method as in not printed at the place. The settings on record: clinical use; ref not given; cited from earlier work.
Data set [10] relates to murine hepatitis virus (MHV). More on the design: method as in not printed at the place. Particulars: tunicamycin treatment; ref not given; cited from earlier work.

Entries after “also recorded” stand apart in the source; their conditions may differ. Like-named read-outs stand apart in the source and are kept apart here.

With `CC(=O)OC[C@H]1O[C@@H](OCc2cn(C[C@H]3O[C@@H](n4ccc(=O)[nH]c4=O)[C@H](O[Si](C)(C)C(C)(C)C)[C@@H]3O[Si](C)(C)C(C)(C)C)nn2)[C@H](OC(C)=O)[C@@H](OC(C)=O)[C@H]1OC(C)=O` [Compound 15, 2′,3′-di-O-tert-Butyldimethylsilyl-5′-deoxy-5′-[4-(2″,3″,4″,6″-tetra-O-acetyl-β-D-galactopyranosyloxymethyl)-1,2-3-triazol-1-yl]-uridine], the half-inhibitory concentration (IC50) (as a rule, the concentration needed to halve the response being measured) in data set [1] (LLC-MK2, 96 h, read-out: IC50 (HCoV-NL63)) was 6.8 µM; in data set [1] (LLC-MK2, supplementary CSV, decimal comma, read-out: IC50 (HCoV-NL63)) it was 6.79 µM; in the data set on SARS-CoV-2 (Severe acute respiratory syndrome coronavirus 2, Vero, 48 h), about 27.4 µM; with SARS-CoV-2 (Severe acute respiratory syndrome coronavirus 2, Vero, supplementary CSV, decimal comma), 27.4 µM; in data set [4] (LR7, 24 h, read-out: IC50 (MHV)), 7.6 µM; in data set [4] (LR7, supplementary CSV, decimal comma, read-out: IC50 (MHV)), 7.62 µM. Further, the “antiviral efficacy against HCoV-NL63 compared with compound 24” value in [1] is recorded as “slightly lower activity”. Also, the “reduction of SC-VLP entry compared with the control” value in [2] is given as 80%. In addition, in data set [3], the “HCoV-NL63 N protein level” value is recorded as “significantly reduced; also recorded: No N protein was detected”. In addition, the CC50 – broadly, the concentration that lowers cell viability or growth by half – at 48 h in data set [5] is 134 µM. Moreover, the “reduction of cell viability (cytotoxicity in uninfected cells)” value in the data set with LR7 cells was 10–30%. For the same compound, the “protection against MHV-induced CPE” value in data set [6] is listed as “significantly reduced cell death”. In addition, the “concentration above which MHV-induced CPE was significantly reduced” value in data set [6] was “above 12.5 μM”. Also, the CC50 at 96 h is over 100 µM in data set [7] and 49.8 µM in [8]. Besides, the “concentration that effectively suppressed HCoV-NL63 RNA synthesis” value in the data set with HCoV-NL63 RNA synthesis was 12.5 µM.
Consider `CC(=O)OC[C@H]1O[C@@H](SCc2cn(C[C@H]3O[C@@H](n4ccc(=O)[nH]c4=O)[C@H](O[Si](C)(C)C(C)(C)C)[C@@H]3O[Si](C)(C)C(C)(C)C)nn2)[C@H](OC(C)=O)[C@@H](OC(C)=O)[C@H]1OC(C)=O` [Compound 21, 2′,3′-di-O-tert-Butyldimethylsilyl-5′-deoxy-5′-[4-(2″,3″,4″,6″-tetra-O-acetyl-β-D-galactopyranosylthiomethyl)-1,2-3-triazol-1-yl]-uridine], for which the IC50 was 5.7 µM in data set [1] (96 h, virus titer released from LLC-Mk2 cells, MOI 0.01, 4 days p.i., read-out: IC50 (HCoV-NL63)); 5.56 µM in data set [1] (LLC-MK2, read-out: IC50 (HCoV-NL63)); 19 µM in the data set with SARS-CoV-2 (Severe acute respiratory syndrome coronavirus 2, Vero); about 19 µM in the data set on SARS-CoV-2 (Severe acute respiratory syndrome coronavirus 2, Vero cells, supernatant 48 h after infection, plaque assay); 4.51 µM in [4] (LR7, read-out: IC50 (MHV)); 4.5 µM in data set [4] (virus titer released from LR7 cells, MOI 0.01, 24 h p.i., plaque assay, read-out: IC50 (MHV)). In addition, in [1], the “antiviral efficacy against HCoV-NL63 compared with compound 24” value was “slightly lower activity”. In data set [2], the “reduction of SC-VLP entry compared with the control” value is 80%. In data set [3], the “HCoV-NL63 N protein level” value is “significantly reduced; also recorded: No N protein was detected”. Moreover, the “dose above which no virus was detectable (MHV titer)” value in [4] (LR7 cells, 24 h p.i., plaque assay) is recorded as “above 6.25 μM”. The 50% cytotoxic concentration (CC50) at 48 h in [5] came out at 65.3 µM. Further, the “reduction of cell viability (cytotoxicity in uninfected cells)” value in the data set with LR7 cells is “no detectable toxicity”. Further, in [6], the “protection against MHV-induced CPE” value was “significantly reduced cell death; also recorded: nearly eliminating CPE”. The “concentration above which MHV-induced CPE was significantly reduced” value in [6] is on record as “above 6.25 μM”. In addition, the figures for the 50% cytotoxic concentration (CC50) at 96 h in data set [7] and in data set [8] were over 100 µM and 46.7 µM, respectively. Also, the “concentration that effectively suppressed HCoV-NL63 RNA synthesis” value in the data set on HCoV-NL63 RNA synthesis amounted to 12.5 µM.
Regarding `CCCC(=O)O[C@H]1CN2CC[C@H](O)[C@@H]2[C@@H](O)[C@@H]1O` [celgosivir], the “adverse effects in humans” value in data set [9] is “diarrhea, weight loss, and flatulence”.
On to `CCCCN1C[C@H](O)[C@@H](O)[C@H](O)[C@H]1CO` [miglustat], for which, in data set [9], the “adverse effects in humans” value is “diarrhea, weight loss, and flatulence”.
Regarding tunicamycin, the “effect on MHV viral titers” value in data set [10] is on record as “significantly reducing viral titers”.
